± gives the expanded uncertainty stated by the source.

Data set [1] is described as follows: Molar enthalpy of transition or fusion. Conditions: Crystal; DSC.
For data set [2] the following is noted: for Normal melting temperature: Crystal, DTA; for mass density: 293.15 K, 101.33 kPa, Liquid, Pycnometric method.
Data set [3] in a line: refractive index (Na D-line) (dimensionless). The conditions noted are these: 293.15 K; 101.33 kPa; Liquid; Standard Abbe refractometry.

Regarding `O=P1(O)OCC2(CO1)COP(=O)(O)OC2` (stereo not given), in data set [1], the “Molar enthalpy of transition or fusion” value was determined as 5.37 ± 0.17 kcal/mol. The Normal melting temperature in data set [2] turned out to be 310.57 ± 0.5 °C.

In the case of `O=P1(Oc2ccccc2)OCC2(CO1)COP(=O)(Oc1ccccc1)OC2` (stereo not given), the “Molar enthalpy of transition or fusion” value in data set [1] was 8.71 ± 0.239 kcal/mol. Moreover, the Normal melting temperature in data set [2] worked out at 196.43 ± 0.5 °C.

As a reminder, the refractive index is a measure of how strongly the sample bends light. The mass density is the mass of a sample divided by its volume. On to `C1COCCO1` [1,4-dioxane], for which the refractive index in data set [3] worked out at 1.4175 ± 0.0008. Besides, the mass density in data set [2] turned out to be 1034 ± 1 kg/m3.

For the molecule `CCOCCO` [2-ethoxyethan-1-ol], the refractive index in data set [3] is given as 1.4065 ± 0.0007. Besides, in data set [2], the mass density is 929 ± 1 kg/m3.

Regarding `O=C(O)CCP(=O)(O)c1ccccc1` [3-(hydroxy(phenyl)phosphoryl)propanoic acid], the “Molar enthalpy of transition or fusion” value in data set [1] worked out at 8.03 ± 0.232 kcal/mol. For the same molecule, the Normal melting temperature in data set [2] was 159.51 ± 0.5 °C.

In the case of `O=P(O)(CO)c1ccccc1` [(hydroxymethyl)(phenyl)phosphinic acid], in data set [1], the “Molar enthalpy of transition or fusion” value was 6.49 ± 0.196 kcal/mol. Moreover, the Normal melting temperature in data set [2] stood at 140.2 ± 0.5 °C.

Regarding `CC(=O)O` [acetic acid], the refractive index in data set [3] turned out to be 1.3716 ± 0.0007. In addition, the mass density in data set [2] was 1049 ± 1 kg/m3.

On to `CC(C)=O` [acetone], for which, in data set [3], the refractive index was 1.359 ± 0.0007. Moreover, the mass density in data set [2] stood at 790 ± 1 kg/m3.

As to `CC#N` [acetonitrile], the refractive index in data set [3] was 1.343 ± 0.0007. For the same molecule, the mass density in data set [2] came to 783 ± 1 kg/m3.

Turning to `c1ccccc1` [benzene], the refractive index in data set [3] is 1.5011 ± 0.0007. Further, in data set [2], the mass density worked out at 879 ± 1 kg/m3.

`CCC(C)=O` [butanone]: the refractive index in data set [3] came out at 1.3788. Also, the mass density in data set [2] stood at 805 ± 1 kg/m3.

Take `C1CCCCC1` [cyclohexane]: in data set [3], the refractive index stood at 1.4266 ± 0.0007. Besides, the mass density in data set [2] is on record as 779 ± 1 kg/m3.

As for `ClCCl` [dichloromethane], the refractive index in data set [3] is reported as 1.4237 ± 0.0007. Besides, in data set [2], the mass density turned out to be 1321 ± 1 kg/m3.

For `CCOCC` [diethyl ether], in data set [3], the refractive index came to 1.3497 ± 0.0007. Also, the mass density in data set [2] is recorded as 714 ± 1 kg/m3.

Consider `CCO` [ethanol], for which, in data set [3], the refractive index is given as 1.366 ± 0.0007. Further, in data set [2], the mass density is given as 790 ± 1 kg/m3.

`CCOC(C)=O` [ethyl acetate]: the refractive index in data set [3] came out at 1.3719 ± 0.0007. The mass density in data set [2] stood at 899 ± 1 kg/m3.

For the molecule `CO` [methanol], the refractive index in data set [3] was found to be 1.3301 ± 0.0007. In addition, the mass density in data set [2] worked out at 792 ± 1 kg/m3.

With `c1ccncc1` [pyridine], in data set [3], the refractive index was 1.5095 ± 0.0007. In data set [2], the mass density worked out at 983 ± 1 kg/m3.

As to `C1CCOC1` [tetrahydrofuran], the refractive index in data set [3] was found to be 1.405 ± 0.0008.

On to `Cc1ccccc1` [toluene], for which the refractive index in data set [3] is 1.4967 ± 0.0007. In addition, in data set [2], the mass density is 866 ± 1 kg/m3.

Consider `ClC(Cl)Cl` [trichloromethane], for which, in data set [3], the refractive index is reported as 1.4476 ± 0.0007. Further, the mass density in data set [2] is recorded as 1484 ± 2 kg/m3.

For `COc1ccc(P(c2ccc(OC)cc2)c2ccc(OC)cc2)cc1` [tris(4-methoxyphenyl)phosphane], the “Molar enthalpy of transition or fusion” value in data set [1] came to 6.14 ± 0.186 kcal/mol. The Normal melting temperature in data set [2] was found to be 130.67 ± 0.5 °C.

Take `COc1ccc(P(=O)(c2ccc(OC)cc2)c2ccc(OC)cc2)cc1` [tris(4-methoxyphenyl)phosphine oxide]: the “Molar enthalpy of transition or fusion” value in data set [1] was 6.82 ± 0.194 kcal/mol. Besides, in data set [2], the Normal melting temperature amounted to 144.69 ± 0.5 °C.

Source of the values: the NIST ThermoML archive (doi:10.1021/je100341q).
